Assay results reported in publication PMC10812672, “Short Antimicrobial Peptide Derived from the Venom Gland Transcriptome of Pamphobeteus verdolaga Increases Gentamicin Susceptibility of Multidrug-Resistant Klebsiella pneumoniae” (Antibiotics, 2023).
pIC50: −log10 of the molar value.

Assays:
[1] = test system: E. coli; settings: custom database compiled from public databases and PubMed; averaged where multiple reports; cited from earlier work
Source text: (§1) Agelaia-CP Agelaia pallipes […] […] 13 1 4.00 1.25 s IsCT [EK7. GP8. Opisthacanthus SK11] madagascariensi […] 13 4 2.00 1.17 s Opisthacanthus IsCT [EK7] madagascariensi […] 13 3 2.00 1.00 s Opisthacanthus IsCT [WL6. SK11 ] madagascariensi ILGKILKGIKKLF 13 4 2.00 2.00 s Opisthacanth ... || (+ 2 further places)

[2] = test system: S. aureus; settings: custom database compiled from public databases and PubMed; averaged where multiple reports; cited from earlier work
Source text: as §1

[3] = test system: multidrug-resistant (MDR) strain of K. pneumoniae, clinical isolate; assay: microbe, parasite or virus in culture; assay type: cell-based, Klebsiella pneumoniae
Method: A multidrug-resistant (MDR) strain of K. pneumoniae was identified and isolated from a tertiary-level hospital in Medellin, Colombia, using the VITEK-2 system (bioMérieux, Marcy-l’Étoile, France). The MDR strain was evaluated against several antibiotics at concentrations of 1.56–100 μM. […] In contrast, the strain was susceptible to doxycycline (Supplementary Figure S7g) and chloramphenicol (Supplementary Figure S7h), with MICs of 50 μM and 100 µM, respectively (Table 3). […] All of P. verdolaga’s AMPs were evaluated against the clinical isolate at concentrations of 1.56–200 µM (Supplementary Figure S8). […] A growth inhibition kinetic assay was conducted. […] All of P. verdolaga’s peptides at 100 μM induced morphological changes in the MDR K. pneumoniae, indicating membrane interactions, even though no significant inhibition was observed (Supplementary Figure S9).
The evaluation of the antimicrobial activity of the peptides was conducted using the CLSI’s broth microdilution method for bacterial susceptibility testing. For the screening phase, peptides were evaluated at a single 30 μM concentration, in triplicate and in three independent assays, against the E. coli ATCC® 8739, E. coli ATCC® 25922, S. aureus ATCC® 6538, or S. aureus ATCC® 29213 reference USP and CLSI strains. For the determination of MIC, MBC, or IC50, peptides or antibiotics were evaluated in concentrations between 1.56–200 µM. These evaluations were conducted in triplicate and in three independent assays, against the E. coli ATCC® 25922, S. aureus ATCC® 29213, E. faecalis ATCC® 49532, P. aeruginosa ATCC® 9027, and K. pneumoniae ATCC® BAA-1705, or the clinically isolated MDR strain. In detail, 1 mL of a glycerol stock solution of the ATCC® or clinically isolated bacterial strain was added to 9 mL of Mueller-Hinton Broth and incubated for 18 h, 180 rpm and 37 °C (Incubator 1000, Heidolph Instruments, Schwabach, Germany). After the incubation, 1 mL of the previous solution was transferred to a new recipient containing 9 mL of fresh Mueller-Hinton broth and incubated for 4 h, 180 rpm and 37 °C (Incubator 1000, Heidolph Instruments, Schwabach, Germany). During the second incubation, the peptides or the antibiotics were dissolved in PBS pH 7.20 in concentrations between 19.53–2500 µM (MC5 Micro Balance, Sartorius AG, Göttingen, Germany). An amount of 10 µL of either peptide or antibiotic was dispensed in triplicate in 96-well flat bottom culture plates, along with 10 µL of PBS (Negative activity control), BTM-P1 (Positive activity control), or 10 µL of Mueller-Hinton broth (Blank); then, 110 µL of Mueller-Hinton broth was poured in all wells. Following this, the bacteria were suspended in Mueller-Hinton broth up to a concentration of approximately 1.50 × 10^8 CFU/mL, as measured by optical density at 600 nm between 0.06 to 0.11 (0.5 McFarland standard), in a Multiskan SkyHigh spectrophotometer (ThermoFisher Scientific, Waltham, MA, USA). Amounts of 5 µL of the 1.50 × 10^8 CFU/mL suspension were added to each well (except for the blank) for a final well concentration of approximately 6 × 10^6 CFU/mL. The plate was incubated for 24 h at 37 °C (BE 500, Memmert GmbH, Büchenbach, Germany) and optical density was measured at 600 nm in a Multiskan SkyHigh spectrophotometer (ThermoFisher Scientific, Waltham, MI, USA). Following the measurement of optical density, plates were visually inspected to determine the MIC. Subsequently, 100 µL of the concentration associated to the MIC and 100 µL of the next higher concentration were added to Petri dishes containing Mueller-Hinton Agar. The dishes were then incubated for 24 h at 37 °C (BE 500, Memmert GmbH, Büchenbach, Germany). After incubation, the Petri dishes were visually inspected, and the MBC was determined in the absence of growth. IC50 values were interpolated from regressions with correlation values above 0.70. […]

| Molecule | MIC E. coli [1] [µM] | MIC S. aureus [2] [µM] | further results |
| --- | --- | --- | --- |
| PFKLSLHL [Jellein-1, cDB AMP; Apis mellifera] | 2.62 | 10.48 |  |
| FLGSLFSIGSKLLPGVIKLFQRKKQ [Im-5, cDB AMP; Isometrus maculatus] | 10.00 | 3.75 |  |
| ILKKIWKPIKKLF [IsCT-P, cDB AMP; Opisthacanthus madagascariensis] | 2.00 | 1.00 |  |
| FLFKLIPKVIKGLVKAIRK [AaeAP1 [S4.8.15K; A11K. N19K], cDB AMP; Androctonus aeneas] | 10.85 | 8.14 |  |
| C[C@H]1c2cccc(O)c2C(=O)C2=C(O)[C@]3(O)C(=O)C(C(N)=O)=C(O)[C@@H](N(C)C)[C@@H]3[C@@H](O)[C@@H]21 [Doxycycline, doxycycline] |  |  | pIC50 ([3]; Klebsiella pneumoniae): 4.42; MIC ([3]; Klebsiella pneumoniae, 24 h, MDR K. pneumoniae clinical isolate, peptides 1.56–200 µM, antibiotics 1.56–100 µM, 24 h 37 °C): 50 µM; MIC ([3]; Klebsiella pneumoniae, MDR K. pneumoniae clinical isolate): 3.21 µg/mL; Classification at 10^6 CFU/mL ([3]; MDR K. pneumoniae clinical isolate, CLSI classification): Susceptible |
| FLFKLIPKAIKGLVKAIRK [AaeAP2 [S4.8.15K; A11K. N19K], cDB AMP; Androctonus aeneas] | 10.99 | 8.24 |  |
| GMASLLAKVLPHVVKLIK [Codesane, cDB AMP; Colletes daviesanus] | 3.70 | 3.70 |  |
| VNWKKVLGKIIKVAK [Lasioglossin LL-I, cDB AMP; Lasioglossum laticeps] | 1.70 | 14.3 |  |
| CC1(C)S[C@@H]2[C@H](NC(=O)[C@H](N)c3ccccc3)C(=O)N2[C@H]1C(=O)O [ampicillin] |  |  | inhibition at 100 µM ([3]; Klebsiella pneumoniae, read-out: maximum growth inhibition): ≤ 20% |
| FFGSLLSLGSKLLPSVFKLFQRKKE [Css54, cDB AMP; Centruroides suffusus suffusus] | 4.35 | 4.35 |  |
| RRWCFRVCYRGFCYRKCR [Polyphemusin-1, cDB AMP; Limulus polyphemus] | 0.9 | 0.3 |  |
| LKWGAILKHIIK [PNG-1/3, cDB AMP; Panurgus calcaratus] | 3.70 | 11.70 |  |
| FLFKLIPKAIKGLIKAFK [AcrAP1a, cDB AMP; Androctonus crassicauda] | 4 | 8 |  |
| penicillin |  |  | maximum growth inhibition ([3]; MDR K. pneumoniae, at 100 μM, complete resistance): ≤ 20% |
| LNWGALLKHLLK [PNG-1/19, cDB AMP; Panurgus calcaratus] | 3.80 | 6.70 |  |
| GFLSILKKVLPKVMAHMK [Melectin, cDB AMP; Melecta albifrons] | 10.37 | 12.80 |  |
| LNWGAILKHIIK [PNG-1, cDB AMP; Panurgus calcaratus] | 3.70 | 10.60 |  |
| FLFKLIPKAIKGLIKAFK [AcrAP1a [S4K.H8K.S11K.S15K]] [cDB AMP; Androctonus crassicauda] | 8.00 | 4.00 |  |
| VWLSALKFIGKHLAKHQLSKL [Lycosin-II, cDB AMP; Lycosa singoriensis] | 12.50 | 3.10 |  |
| FWGALAKGALKLIGSLFSSFSKKD [Pandinin-2 [P14G], cDB AMP; Pandinus imperator] | 12.50 | 12.50 |  |
| LNWGAILKKIIK [PNG-1/9, cDB AMP; Panurgus calcaratus] | 4.30 | 7.30 |  |

| Molecule | MIC E. coli [1] [µM] | MIC S. aureus [2] [µM] | further results |
| --- | --- | --- | --- |
| VNWKKILGKIIKVVK [Lasioglossin LL-III, cDB AMP; Lasioglossum laticeps] | 1.40 | 3.90 |  |
| QCRRLCYKQRCVTYCRGR [Gomesin c(1-18)[Gln1], cDB AMP; Acanthoscurria gomesiana] | 0.48 | 1.44 |  |
| INLKAIAALAKKLLG [Mastoparan-like peptide 12c, cDB AMP; Vespa magnifica] | 3.90 | 1.95 |  |
| RRWCFRVCYKGFCYRKCR [Polyphemusin-2, cDB AMP; Limulus polyphemus] | 3.87 | 5.14 |  |
| GLLSKFGRLARKLARVIPKV [Pilosulin-2, cDB AMP; Myrmecia pilosula] | 1.33 | 4.00 |  |
| LNWGKILKHIIK [PNG-1/6, cDB AMP; Panurgus calcaratus] | 4.00 | 8.70 |  |
| VNWKKILGKIIKVAK [Lasioglossin LL-II, cDB AMP; Lasioglossum laticeps] | 1.40 | 9.00 |  |
| ILGKIWKIKKLF [IsCT precursor, cDB AMP; Opisthacanthus madagascariensis] | 2.00 | 2.00 |  |
| GLHKVMREVLGYERNSYKKFFLR [Ixosin, cDB AMP; Ixodes sinensis] | 10.45 | 1.29 |  |
| FLFKLIPKAIKGLLKAFK [AcrAP2 [S4K.N8K.S11K.S15K], cDB AMP; Androctonus crassicauda] | 8.00 | 4.00 |  |
| CRRLCYKQRCVTYCRGR [Gomesin, cDB AMP; Acanthoscurria gomesiana] | 0.80 | 12.10 |  |
| FLFKLIPKAIKKLISKFK [AamAP1 [S4K.H8K.G11.12K.A16K], cDB AMP; Androctonus amoreuxi] | 7.50 | 5.00 |  |
| GFGMALKLLKKVL [Macropin 1, cDB AMP; Macropis fulvipes] | 3.00 | 3.70 |  |
| SIGRRGGYCAGIIKQTCTCYR [Longicin (53-73), cDB AMP; Haemaphysalis longicornis] | 2.00 | 2.00 |  |
| LNWKAILKHIIK [PNG-1/5, cDB AMP; Panurgus calcaratus] | 2.30 | 5.30 |  |
| ACQFWSCNSSCISRGYRQGYCWGIQYKYCQCQ [Defensin-1, cDB AMP; Centruroides limpidus limpidus] | 13.08 | 13.08 |  |
| GMWSKILGHLIR [HAL-1, cDB AMP; Halictus sexcinctus] | 3.80 | 7.70 |  |
| FLFSLIPSAISGLISAFKGRR [Marmelittin, cDB AMP; Mesobuthus martensii] | 6.21 | 6.48 |  |
| FIGAIARLLSKIFGKR [Bmkn2, cDB AMP; Mesobuthus martensii] | 1.50 | 0.60 |  |
| ACHAHCQSVGRRGGYCGNFRMTCYCY [Midgut defensin G2, cDB AMP; Haemaphysalis longicornis] | 5.94 | 5.09 |  |
